According to patent US12157717B2, “Compounds for the treatment of bovine or swine respiratory disease” (Intervet Inc., priority 2018, dated 2024):
Converted amounts (≈) assume the structure as drawn.

Each compound was assayed on Mannheimia haemolytica MH 6357 (M7/2) (assay: MIC, broth-microdilution (CLSI), strain MH 6357). Details: Mannheimia haemolytica M7/2, reference strain (cattle infection strain).
Format: cell-based
Procedure: (§1) The Minimum inhibitory concentrations (MIC) of compounds according to the invention for a number of veterinary bacterial pathogens were determined by the broth-microdilution method according to CLSI document VETO 1-A4.
(§2) Microdilution trays containing a doubling dilution series of the test compound were used for the tests. The MIC results were interpreted according to the CLSI documents VET01-S3. The lowest concentration of compound at which no visible growth (i.e. no turbidity) detected by the unaided eye was recorded as the MIC.
For `CNC(=O)C(C(=O)NO)N(C)C(=O)c1ccc(C#Cc2ccc(CNCc3ccccn3)cc2)cc1` (stereo not shown) [Compound 28], the “MIC MH 6357” value was 6.3 µM (≈ 3.06 µg/mL).
With `CNC(=O)C(NC(=O)c1ccc(C#Cc2ccc(CNCc3ccco3)cc2)cc1)C(=O)NO` (stereo not shown) [Compound 14] the “MIC MH 6357” value was 0.4 µM (≈ 0.184 µg/mL).
For `CNC(=O)C(NC(=O)c1ccc(C#Cc2ccc(CNCc3ccc(OC)cc3)cc2)cc1)C(=O)NO` (stereo not shown) [Compound 6], the “MIC MH 6357” value was 0.4 µM (≈ 0.2 µg/mL).
For `CNC(=O)C(NC(=O)c1ccc(C#Cc2ccc(CNCc3ccccc3)cc2)cc1)C(=O)NO` (stereo not shown) [Compound 5], the “MIC MH 6357” value was 0.4 µM (≈ 0.188 µg/mL).

Each compound was assayed on Mannheimia haemolytica MH 6374 (ATCC 33396) (assay: MIC, broth-microdilution (CLSI), strain MH 6374). Details: Mannheimia haemolytica ATCC 33396, reference strain.
Format: cell-based
Procedure: as §1, §2
With `CNC(=O)C(C(=O)NO)N(C)C(=O)c1ccc(C#Cc2ccc(CNCc3ccccn3)cc2)cc1` (stereo not shown) [Compound 28] the “MIC MH 6374” value was 3.1 µM (≈ 1.51 µg/mL).
With `CNC(=O)C(NC(=O)c1ccc(C#Cc2ccc(CNCc3ccco3)cc2)cc1)C(=O)NO` (stereo not shown) [Compound 14] the “MIC MH 6374” value was 0.4 µM (≈ 0.184 µg/mL).
`CNC(=O)C(NC(=O)c1ccc(C#Cc2ccc(CNCc3ccc(OC)cc3)cc2)cc1)C(=O)NO` (stereo not shown) [Compound 6] was tested, and the “MIC MH 6374” value was 0.8 µM (≈ 0.4 µg/mL).
With `CNC(=O)C(NC(=O)c1ccc(C#Cc2ccc(CNCc3ccccc3)cc2)cc1)C(=O)NO` (stereo not shown) [Compound 5] the “MIC MH 6374” value was 0.8 µM (≈ 0.376 µg/mL).

The compounds below were run on Mannheimia haemolytica MH 10720 (154) (assay: MIC, broth-microdilution (CLSI), strain MH 10720). Details: Mannheimia haemolytica 154, BRD field isolate.
Format: cell-based
Procedure: as §1, §2
For `CNC(=O)C(C(=O)NO)N(C)C(=O)c1ccc(C#Cc2ccc(CNCc3ccccn3)cc2)cc1` (stereo not shown) [Compound 28], the “MIC MH 10720” value was 1.6 µM (≈ 0.777 µg/mL).
`CNC(=O)C(NC(=O)c1ccc(C#Cc2ccc(CNCc3ccco3)cc2)cc1)C(=O)NO` (stereo not shown) [Compound 14] was tested, and the “MIC MH 10720” value was 0.2 µM (≈ 0.0921 µg/mL).
In the case of `CNC(=O)C(NC(=O)c1ccc(C#Cc2ccc(CNCc3ccc(OC)cc3)cc2)cc1)C(=O)NO` (stereo not shown) [Compound 6], the “MIC MH 10720” value is reported as ≤0.1 µM.
In the case of `CNC(=O)C(NC(=O)c1ccc(C#Cc2ccc(CNCc3ccccc3)cc2)cc1)C(=O)NO` (stereo not shown) [Compound 5], the “MIC MH 10720” value is reported as ≤0.1 µM.

These compounds were tested on Mannheimia haemolytica MH 12587 (1071), macrolide-resistance: erm+, E+ (assay: MIC, broth-microdilution (CLSI), strain MH 12587). Details: Mannheimia haemolytica 1071, BRD field isolate.
Format: cell-based
Procedure: as §1, §2
`CNC(=O)C(C(=O)NO)N(C)C(=O)c1ccc(C#Cc2ccc(CNCc3ccccn3)cc2)cc1` (stereo not shown) [Compound 28] was tested, and the “MIC MH 12587” value was 12.5 µM (≈ 6.07 µg/mL).
In the case of `CNC(=O)C(NC(=O)c1ccc(C#Cc2ccc(CNCc3ccco3)cc2)cc1)C(=O)NO` (stereo not shown) [Compound 14], the “MIC MH 12587” value is reported as 0.4 µM (≈ 0.184 µg/mL).
`CNC(=O)C(NC(=O)c1ccc(C#Cc2ccc(CNCc3ccc(OC)cc3)cc2)cc1)C(=O)NO` (stereo not shown) [Compound 6] was tested, and the “MIC MH 12587” value was 1.6 µM (≈ 0.801 µg/mL).
In the case of `CNC(=O)C(NC(=O)c1ccc(C#Cc2ccc(CNCc3ccccc3)cc2)cc1)C(=O)NO` (stereo not shown) [Compound 5], the “MIC MH 12587” value is reported as 1.6 µM (≈ 0.753 µg/mL).

These compounds were tested on Mannheimia haemolytica MH 13065 (XB0446-6003.9) (assay: MIC, broth-microdilution (CLSI), strain MH 13065). Details: Mannheimia haemolytica XB0446-6003.9, BRD field isolate.
Format: cell-based
Procedure: as §1, §2
With `CNC(=O)C(C(=O)NO)N(C)C(=O)c1ccc(C#Cc2ccc(CNCc3ccccn3)cc2)cc1` (stereo not shown) [Compound 28] the “MIC MH 13065” value was 3.1 µM (≈ 1.51 µg/mL).
In the case of `CNC(=O)C(NC(=O)c1ccc(C#Cc2ccc(CNCc3ccco3)cc2)cc1)C(=O)NO` (stereo not shown) [Compound 14], the “MIC MH 13065” value is reported as 0.4 µM (≈ 0.184 µg/mL).
For `CNC(=O)C(NC(=O)c1ccc(C#Cc2ccc(CNCc3ccc(OC)cc3)cc2)cc1)C(=O)NO` (stereo not shown) [Compound 6], the “MIC MH 13065” value was 0.8 µM (≈ 0.4 µg/mL).
In the case of `CNC(=O)C(NC(=O)c1ccc(C#Cc2ccc(CNCc3ccccc3)cc2)cc1)C(=O)NO` (stereo not shown) [Compound 5], the “MIC MH 13065” value is reported as 0.8 µM (≈ 0.376 µg/mL).

Each compound was assayed on Mannheimia haemolytica MH 13093 (XB0472-6014.1) (assay: MIC, broth-microdilution (CLSI), strain MH 13093). Details: Mannheimia haemolytica XB0472-6014.1, BRD field isolate.
Format: cell-based
Procedure: as §1, §2
With `CNC(=O)C(C(=O)NO)N(C)C(=O)c1ccc(C#Cc2ccc(CNCc3ccccn3)cc2)cc1` (stereo not shown) [Compound 28] the “MIC MH 13093” value was 6.3 µM (≈ 3.06 µg/mL).
In the case of `CNC(=O)C(NC(=O)c1ccc(C#Cc2ccc(CNCc3ccco3)cc2)cc1)C(=O)NO` (stereo not shown) [Compound 14], the “MIC MH 13093” value is reported as 0.8 µM (≈ 0.368 µg/mL).
`CNC(=O)C(NC(=O)c1ccc(C#Cc2ccc(CNCc3ccc(OC)cc3)cc2)cc1)C(=O)NO` (stereo not shown) [Compound 6] was tested, and the “MIC MH 13093” value was 1.6 µM (≈ 0.801 µg/mL).
In the case of `CNC(=O)C(NC(=O)c1ccc(C#Cc2ccc(CNCc3ccccc3)cc2)cc1)C(=O)NO` (stereo not shown) [Compound 5], the “MIC MH 13093” value is reported as 1.6 µM (≈ 0.753 µg/mL).

The compounds below were run on Pasteurella multocida PM 6267 (P 2225 (L386)) (assay: MIC, broth-microdilution (CLSI), strain PM 6267). Details: Pasteurella multocida P 2225 (L386), reference strain (mouse infection strain).
Format: cell-based
Procedure: as §1, §2
`CNC(=O)C(C(=O)NO)N(C)C(=O)c1ccc(C#Cc2ccc(CNCc3ccccn3)cc2)cc1` (stereo not shown) [Compound 28] was tested, and the “MIC PM 6267” value was ≤0.1 µM.
In the case of `CNC(=O)C(NC(=O)c1ccc(C#Cc2ccc(CNCc3ccco3)cc2)cc1)C(=O)NO` (stereo not shown) [Compound 14], the “MIC PM 6267” value is reported as ≤0.1 µM.
`CNC(=O)C(NC(=O)c1ccc(C#Cc2ccc(CNCc3ccc(OC)cc3)cc2)cc1)C(=O)NO` (stereo not shown) [Compound 6] was tested, and the “MIC PM 6267” value was ≤0.1 µM.
With `CNC(=O)C(NC(=O)c1ccc(C#Cc2ccc(CNCc3ccccc3)cc2)cc1)C(=O)NO` (stereo not shown) [Compound 5] the “MIC PM 6267” value was ≤0.1 µM.

Each compound was assayed on Pasteurella multocida PM 6391 (ATCC 43137) (assay: MIC, broth-microdilution (CLSI), strain PM 6391). Details: Pasteurella multocida ATCC 43137, reference strain.
Format: cell-based
Procedure: as §1, §2
`CNC(=O)C(C(=O)NO)N(C)C(=O)c1ccc(C#Cc2ccc(CNCc3ccccn3)cc2)cc1` (stereo not shown) [Compound 28] was tested, and the “MIC PM 6391” value was 3.1 µM (≈ 1.51 µg/mL).
In the case of `CNC(=O)C(NC(=O)c1ccc(C#Cc2ccc(CNCc3ccco3)cc2)cc1)C(=O)NO` (stereo not shown) [Compound 14], the “MIC PM 6391” value is reported as ≤0.1 µM.
`CNC(=O)C(NC(=O)c1ccc(C#Cc2ccc(CNCc3ccc(OC)cc3)cc2)cc1)C(=O)NO` (stereo not shown) [Compound 6] was tested, and the “MIC PM 6391” value was 0.2 µM (≈ 0.1 µg/mL).
For `CNC(=O)C(NC(=O)c1ccc(C#Cc2ccc(CNCc3ccccc3)cc2)cc1)C(=O)NO` (stereo not shown) [Compound 5], the “MIC PM 6391” value was 0.2 µM (≈ 0.0941 µg/mL).

Each compound was assayed on Pasteurella multocida PM 10775 (080130003051) (assay: MIC, broth-microdilution (CLSI), strain PM 10775). Details: Pasteurella multocida 080130003051, BRD field isolate.
Format: cell-based
Procedure: as §1, §2
`CNC(=O)C(C(=O)NO)N(C)C(=O)c1ccc(C#Cc2ccc(CNCc3ccccn3)cc2)cc1` (stereo not shown) [Compound 28] was tested, and the “MIC PM 10775” value was 0.2 µM (≈ 0.0971 µg/mL).
`CNC(=O)C(NC(=O)c1ccc(C#Cc2ccc(CNCc3ccco3)cc2)cc1)C(=O)NO` (stereo not shown) [Compound 14] was tested, and the “MIC PM 10775” value was ≤0.1 µM.
In the case of `CNC(=O)C(NC(=O)c1ccc(C#Cc2ccc(CNCc3ccc(OC)cc3)cc2)cc1)C(=O)NO` (stereo not shown) [Compound 6], the “MIC PM 10775” value is reported as ≤0.1 µM.
`CNC(=O)C(NC(=O)c1ccc(C#Cc2ccc(CNCc3ccccc3)cc2)cc1)C(=O)NO` (stereo not shown) [Compound 5] was tested, and the “MIC PM 10775” value was ≤0.1 µM.

The compounds below were run on Pasteurella multocida PM 12080 (IV102277-0093) (assay: MIC, broth-microdilution (CLSI), strain PM 12080). Details: Pasteurella multocida IV102277-0093, BRD field isolate.
Format: cell-based
Procedure: as §1, §2
In the case of `CNC(=O)C(C(=O)NO)N(C)C(=O)c1ccc(C#Cc2ccc(CNCc3ccccn3)cc2)cc1` (stereo not shown) [Compound 28], the “MIC PM 12080” value is reported as 1.6 µM (≈ 0.777 µg/mL).
`CNC(=O)C(NC(=O)c1ccc(C#Cc2ccc(CNCc3ccco3)cc2)cc1)C(=O)NO` (stereo not shown) [Compound 14] was tested, and the “MIC PM 12080” value was ≤0.1 µM.
For `CNC(=O)C(NC(=O)c1ccc(C#Cc2ccc(CNCc3ccc(OC)cc3)cc2)cc1)C(=O)NO` (stereo not shown) [Compound 6], the “MIC PM 12080” value was ≤0.1 µM.
`CNC(=O)C(NC(=O)c1ccc(C#Cc2ccc(CNCc3ccccc3)cc2)cc1)C(=O)NO` (stereo not shown) [Compound 5] was tested, and the “MIC PM 12080” value was ≤0.1 µM.
